# According to PubChem BioAssay (NCI):
#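 GI50 is the concentration that inhibits growth by half. TGI: total growth inhibition.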
# Columns and labels:
# Test in all cases: NCI tumour cell line growth inhibition, 384-well format
# 786-0 renal = tested on: 786-0 renal
# A498 renal = tested on: A498 renal
# A549 NSCLC = tested on: A549 NSCLC
# ACHN renal = tested on: ACHN renal
# BT-549 breast = tested on: BT-549 breast
# CAKI-1 renal = tested on: CAKI-1 renal
# CCRF-CEM leukemia = tested on: CCRF-CEM leukemia
# COLO 205 colon = tested on: COLO 205 colon
# DU-145 prostate = tested on: DU-145 prostate
# EKVX NSCLC = tested on: EKVX NSCLC
# HCC-2998 colon = tested on: HCC-2998 colon
# HCT-15 colon = tested on: HCT-15 colon
# HL-60(TB) leukemia = tested on: HL-60(TB) leukemia
# HOP-62 NSCLC = tested on: HOP-62 NSCLC
# HOP-92 NSCLC = tested on: HOP-92 NSCLC
# HS 578T breast = tested on: HS 578T breast
# HT29 colon = tested on: HT29 colon
# IGROV1 ovarian = tested on: IGROV1 ovarian
# K-562 leukemia = tested on: K-562 leukemia
# KM12 colon = tested on: KM12 colon
# LOX IMVI melanoma = tested on: LOX IMVI melanoma
# M14 melanoma = tested on: M14 melanoma
# MALME-3M melanoma = tested on: MALME-3M melanoma
# MCF7 breast = tested on: MCF7 breast
# MDA-MB-231 breast = tested on: MDA-MB-231 breast
# MDA-MB-468 breast = tested on: MDA-MB-468 breast
# MOLT-4 leukemia = tested on: MOLT-4 leukemia
# NCI-H226 lung = tested on: NCI-H226 lung
# NCI-H23 lung = tested on: NCI-H23 lung
# NCI-H322M lung = tested on: NCI-H322M lung
# NCI-H460 NSCLC = tested on: NCI-H460 NSCLC
# NCI-H522 lung = tested on: NCI-H522 lung
# NCI/ADR-RES ovarian = tested on: NCI/ADR-RES ovarian
# OVCAR-3 ovarian = tested on: OVCAR-3 ovarian
# OVCAR-4 ovarian = tested on: OVCAR-4 ovarian
# OVCAR-5 ovarian = tested on: OVCAR-5 ovarian
# OVCAR-8 ovarian = tested on: OVCAR-8 ovarian
# RPMI-8226 leukemia = tested on: RPMI-8226 leukemia
# RXF 393 renal = tested on: RXF 393 renal
# SF-268 CNS = tested on: SF-268 CNS
# SF-295 CNS = tested on: SF-295 CNS
# SF-539 CNS = tested on: SF-539 CNS
# SK-MEL-28 melanoma = tested on: SK-MEL-28 melanoma
# SK-MEL-5 melanoma = tested on: SK-MEL-5 melanoma
# SK-OV-3 ovarian = tested on: SK-OV-3 ovarian
# SN12C renal = tested on: SN12C renal
# SNB-19 CNS = tested on: SNB-19 CNS
# SNB-75 CNS = tested on: SNB-75 CNS
# SR leukemia = tested on: SR leukemia
# SW-620 colon = tested on: SW-620 colon
# T-47D breast = tested on: T-47D breast
# U251 glioblastoma = tested on: U251 glioblastoma
# UACC-257 melanoma = tested on: UACC-257 melanoma
# UACC-62 melanoma = tested on: UACC-62 melanoma
# UO-31 renal = tested on: UO-31 renal
smiles,measurement,setting,value
NS(=O)(=O)OC[C@@H]1C[C@@H](n2ccc3c(NC4CCc5ccccc54)ncnc32)C[C@@H]1O (stereo not given in full),GI50,786-0 renal,226 nM
same,TGI,786-0 renal,1130 nM
same,GI50,A498 renal,43.8 nM
same,TGI,A498 renal,10.4 µM
same,GI50,A549 NSCLC,405 nM
same,TGI,A549 NSCLC,13.8 µM
same,GI50,ACHN renal,227 nM
same,TGI,ACHN renal,735 nM
same,GI50,BT-549 breast,56.7 nM
same,TGI,BT-549 breast,491 nM
same,GI50,CAKI-1 renal,76.4 nM
same,TGI,CAKI-1 renal,> 100 µM
same,GI50,CCRF-CEM leukemia,24.6 nM
same,TGI,CCRF-CEM leukemia,126 nM
same,GI50,COLO 205 colon,40.6 nM
same,TGI,COLO 205 colon,292 nM
same,GI50,DU-145 prostate,68.6 nM
same,TGI,DU-145 prostate,14 µM
same,GI50,EKVX NSCLC,2430 nM
same,TGI,EKVX NSCLC,> 100 µM
same,GI50,HCC-2998 colon,434 nM
same,TGI,HCC-2998 colon,5.53 µM
same,GI50,HCT-15 colon,277 nM
same,TGI,HCT-15 colon,11.2 µM
same,GI50,HL-60(TB) leukemia,10.9 nM
same,TGI,HL-60(TB) leukemia,26.6 nM
same,GI50,HOP-62 NSCLC,114 nM
same,TGI,HOP-62 NSCLC,372 nM
same,GI50,HOP-92 NSCLC,439 nM
same,TGI,HOP-92 NSCLC,18.8 µM
same,GI50,HS 578T breast,186 nM
same,TGI,HS 578T breast,13.2 µM
same,GI50,HT29 colon,256 nM
same,TGI,HT29 colon,11.6 µM
same,GI50,IGROV1 ovarian,257 nM
same,TGI,IGROV1 ovarian,4.4 µM
same,GI50,K-562 leukemia,62.7 nM
same,TGI,K-562 leukemia,10.9 µM
same,GI50,KM12 colon,255 nM
same,TGI,KM12 colon,4.95 µM
same,GI50,LOX IMVI melanoma,39.9 nM
same,TGI,LOX IMVI melanoma,168 nM
same,GI50,M14 melanoma,151 nM
same,TGI,M14 melanoma,1050 nM
same,GI50,MALME-3M melanoma,202 nM
same,TGI,MALME-3M melanoma,766 nM
same,GI50,MCF7 breast,32.9 nM
same,TGI,MCF7 breast,424 nM
same,GI50,MDA-MB-231 breast,216 nM
same,TGI,MDA-MB-231 breast,2730 nM
same,GI50,MDA-MB-468 breast,13.5 nM
same,TGI,MDA-MB-468 breast,64.9 nM
same,GI50,MOLT-4 leukemia,29 nM
same,TGI,MOLT-4 leukemia,117 nM
same,GI50,NCI-H226 lung,112 nM
same,TGI,NCI-H226 lung,804 nM
same,GI50,NCI-H23 lung,212 nM
same,TGI,NCI-H23 lung,1380 nM
same,GI50,NCI-H322M lung,333 nM
same,TGI,NCI-H322M lung,11.1 µM
same,GI50,NCI-H460 NSCLC,274 nM
same,TGI,NCI-H460 NSCLC,958 nM
same,GI50,NCI-H522 lung,42.8 nM
same,TGI,NCI-H522 lung,844 nM
same,GI50,NCI/ADR-RES ovarian,1520 nM
same,TGI,NCI/ADR-RES ovarian,11.3 µM
same,GI50,OVCAR-3 ovarian,43.2 nM
same,TGI,OVCAR-3 ovarian,3.55 µM
same,GI50,OVCAR-4 ovarian,210 nM
same,TGI,OVCAR-4 ovarian,799 nM
same,GI50,OVCAR-5 ovarian,554 nM
same,TGI,OVCAR-5 ovarian,13.6 µM
same,GI50,OVCAR-8 ovarian,119 nM
same,TGI,OVCAR-8 ovarian,316 nM
same,GI50,RPMI-8226 leukemia,126 nM
same,TGI,RPMI-8226 leukemia,1560 nM
same,GI50,RXF 393 renal,60.1 nM
same,TGI,RXF 393 renal,304 nM
same,GI50,SF-268 CNS,238 nM
same,TGI,SF-268 CNS,4.97 µM
same,GI50,SF-295 CNS,176 nM
same,TGI,SF-295 CNS,333 nM
same,GI50,SF-539 CNS,85.3 nM
same,TGI,SF-539 CNS,260 nM
same,GI50,SK-MEL-28 melanoma,163 nM
same,TGI,SK-MEL-28 melanoma,1880 nM
same,GI50,SK-MEL-5 melanoma,34.3 nM
same,TGI,SK-MEL-5 melanoma,223 nM
same,GI50,SK-OV-3 ovarian,206 nM
same,TGI,SK-OV-3 ovarian,703 nM
same,GI50,SN12C renal,370 nM
same,TGI,SN12C renal,4.36 µM
same,GI50,SNB-19 CNS,372 nM
same,TGI,SNB-19 CNS,28.5 µM
same,GI50,SNB-75 CNS,178 nM
same,TGI,SNB-75 CNS,627 nM
same,GI50,SR leukemia,24.3 nM
same,TGI,SR leukemia,79.1 nM
same,GI50,SW-620 colon,602 nM
same,TGI,SW-620 colon,15.7 µM
same,GI50,T-47D breast,142 nM
same,TGI,T-47D breast,15.8 µM
same,GI50,U251 glioblastoma,254 nM
same,TGI,U251 glioblastoma,12.5 µM
same,GI50,UACC-257 melanoma,162 nM
same,TGI,UACC-257 melanoma,10.5 µM
same,GI50,UACC-62 melanoma,20.2 nM
same,TGI,UACC-62 melanoma,137 nM
same,GI50,UO-31 renal,3.18 µM
same,TGI,UO-31 renal,> 100 µM
